According to patent US20040242591A1, “Oxazolidinone derivatives as pontential antimicrobials” (priority 2001, published 2004):

Experiments:
MRSA 562 = test: MIC by agar incorporation method, MRSA 562; assay type: cell-based, Methicillin Resistant Staphylococcus aureus; set-up: unit not given here; conditions: Mueller Hinton agar, 10^4 CFU/spot, 24 hours
Ent. faecalis ATCC 29212 = test: MIC by agar incorporation method, E.faecalis 29212; assay type: cell-based, Enterococcus faecalis; set-up: unit not given here; conditions: Mueller Hinton agar, 10^4 CFU/spot, 18 hours
Description: 3) Ent. faecalis ATCC 29212—Enterococcus faecalis ATCC 29212

S. pneum AB 34 = test: MIC by agar incorporation method, S. pneum AB 34; assay type: cell-based, Streptococcus pneumoniae; set-up: unit not given here; conditions: Mueller Hinton agar, 10^4 CFU/spot, 18 hours
S.aureus ATCC 25923 = test: MIC by agar incorporation method, S.aureus 25923; assay type: cell-based, Staphylococus aureus; set-up: unit not given here; conditions: Mueller Hinton agar, 10^4 CFU/spot, 18 hours
MRSA 33 = test: MIC by agar incorporation method, MRSA 33; assay type: cell-based, Methicillin Resistant Staphylococcus aureus; set-up: unit not given here; conditions: Mueller Hinton agar, 10^4 CFU/spot, 24 hours
MRSA 15187 = test: MIC by agar incorporation method, MRSA 15187; assay type: cell-based, Methicillin Resistant Staphylococcus aureus; set-up: unit not given here; conditions: Mueller Hinton agar, 10^4 CFU/spot, 24 hours
Description: 2) MRSA 15187—Methicillin Resistant Staphylococcus aureus

Strep. pne. ATCC 6303 = test: MIC by agar incorporation method, S. pneum 6303; assay type: cell-based, Streptococcus pneumoniae; conditions: Mueller Hinton agar, 10^4 CFU/spot, 18 hours
Description: 5) Strep. pne. ATCC 6303—Streptococcus pneumoniae ATCC 6303

VRE 6A = test: MIC by agar incorporation method, VRE 6A; assay type: cell-based, Enterococcus faecium; set-up: unit not given here; conditions: Mueller Hinton agar, 10^4 CFU/spot, 18 hours
Description: 4) Ent. faecium […]—Enterococcus faecium 6A Van®, Cipro®

Strep.pyog. ATCC 19615 = test: MIC by agar incorporation method, S.pyogenes 19615; assay type: cell-based, Streptococcus pyogenes; set-up: unit not given here; conditions: Mueller Hinton agar, 10^4 CFU/spot, 18 hours
Description: 6) Strep.pyog. ATCC 19615—Streptococcus pyogenes

Structure (SMILES)	In Vitro (MIC) MRSA 562 (MRSA 562)	In Vitro (MIC) E.faecalis 29212 (Ent. faecalis ATCC 29212)	In Vitro (MIC) S. pneum AB 34 (S. pneum AB 34)	In Vitro (MIC) S.aureus 25923 (S.aureus ATCC 25923)	In Vitro (MIC) MRSA 33 (MRSA 33)	In Vitro (MIC) MRSA 15187 (MRSA 15187)	In Vitro (MIC) S. pneum 6303 (Strep. pne. ATCC 6303) [mg/L]	In Vitro (MIC) VRE 6A (VRE 6A)	In Vitro (MIC) S.pyogenes 19615 (Strep.pyog. ATCC 19615)
CC(=O)NC[C@H]1CN(c2ccc(N3CCC(NCc4ccc([N+](=O)[O-])o4)CC3)c(F)c2)C(=O)O1 [Compound No. 86, (S)-N-[[3-[3-Fluoro-4-[4-{N-2-furyl-(5-nitro)methyl}-aminopiperidine-1-yl]phenyl]-2-oxo-5-oxazolidinyl]methyl]acetamide]	1	0.5	2	1	1	1	2	0.5	<0.25
CC(=O)NC[C@H]1CN(c2ccc(N3CCC(N(C)Cc4ccc([N+](=O)[O-])s4)C3)c(F)c2)C(=O)O1 (stereo partly drawn) [Compound No. 90, (S)-N-[[3-[3-Fluoro-4-[N-1,3-[N-methyl[N-{2-thiophenyl(5-nitro)methyl}]aminopyrodinyl]phenyl]]-2-oxo-5-oxazolidinyl]methyl]acetamide]	2	4	4	4	4	2	4	4	2
CC(=O)NC[C@H]1CN(c2ccc(N3CCC(N(C)C(=O)c4ccc([N+](=O)[O-])s4)C3)c(F)c2)C(=O)O1 (stereo partly drawn) [Compound No. 91]	<0.25	0.5	1	<0.25	<0.25	<0.25	1	1	<0.25
CC(=O)NC[C@H]1CN(c2ccc(N3CCC(N(C)C(=O)c4ccc([N+](=O)[O-])o4)C3)c(F)c2)C(=O)O1 (stereo partly drawn) [Compound No. 92]	<0.25	<0.25	1	1	0.5	0.5	1	<0.25	1
CC(=O)NC[C@H]1CN(c2ccc(N3CCC(CN(C)Cc4ccc([N+](=O)[O-])o4)CC3)c(F)c2)C(=O)O1 [Compound No. 93]	1	2	4	2	1	1	4	4	1
CC(=O)NC[C@H]1CN(c2ccc(N3CCC(CN(C)Cc4ccc([N+](=O)[O-])s4)CC3)c(F)c2)C(=O)O1 [Compound No. 94]	2	4	8	4	2	2	4	4	4
CC(=O)NC[C@H]1CN(c2ccc(N3CCCC(=O)C3)c(F)c2)C(=O)O1 [Compound No. 96, (S)-N-[[3-{3-Fluoro-4-(3-oxo-piperidin-1-yl)-phenyl}-2-oxo-5-oxazolidinyl]methyl]acetamide]	8	8	4	16	16	16	4	8	4
CC(=O)NC[C@H]1CN(c2ccc(N3CC4C(CNCc5ccc([N+](=O)[O-])o5)C4C3)c(F)c2)C(=O)O1 (stereo partly drawn) [Compound No. 99, (S)-N-[[3-[3-Fluoro-4[N-1-[3-{N-2-furyl-(5-nitro)methyl}-aminomethyl]-3-azabicyclo[3.1.0]hexane]phenyl]-2-oxo-5-oxazolidinyl]methyl]acetamide]	>8	>8	4	>8	>8	>8	4	8	2
CC(=O)NC[C@H]1CN(c2ccc(N3CCN(C(C)c4ccc([N+](=O)[O-])s4)CC3)c(F)c2)C(=O)O1 (stereo partly drawn) [Compound No. 100]	0.5	0.5	2	0.5	0.5	0.5	2	0.5	2
CC(=O)NC[C@H]1CN(c2ccc(N3CCN(C(C)c4ccc([N+](=O)[O-])o4)CC3)c(F)c2)C(=O)O1 (stereo partly drawn) [Compound No. 101]	1	0.125	2	1	1	1	1	0.25	0.06
